Drawing on patent US20060040992A1, “Antiinflammatory 3-arylthio-3-thiazolyl-alkylamines” (AstraZeneca AB, priority 2002, published 2006), this text covers IC50 for one compound.

The target in this assay is T1, nitric oxide synthase (Mus musculus, UniProt P29477).
T1 construct: The reaction is started by adding 50 μl of cell lysate (prepared as above); endogenous in cells; host or cells: J774A-1 murine macrophage cell line, induced with LPS and IFN-gamma; crude cell lysate
The assay is described as follows: Screen 1: nitric oxide synthase inhibition, 3H-L-arginine to 3H-L-citrulline conversion, lysate of induced J774A-1 cells. The class given is biochemical. The conditions noted are these: enzyme from IFNg/LPS-induced murine macrophage J774A-1 cell lysate; 1 hour at room temperature; read-out: IC50 (concentration of drug substance which gives 50% enzyme inhibition in the assay). As to the method:
The activity of compounds of formula (I), or a pharmaceutically acceptable salt thereof, may be screened for nitric oxide synthase inhibiting activity by a procedure based on that of Förstermann et al., Eur. J. Pharm., 1992, 225, 161-165. Nitric oxide synthase converts ^3H-L-arginine into ^3H-L-citrulline which can be separated by cation exchange chromatography and quantified by liquid scintillation counting.
Enzyme is prepared, after induction, from the cultured murine macrophage cell line J774A-1 (obtained from the laboratories of the Imperial Cancer Research Fund). J774A-1 cells are cultured in Dulbeccos Modified Eagles Medium (DMM) supplemented with 10% foetal bovine serum, 4 mM L-glutamine and antibiotics (100 units/ml penicillin G, […] & […] amphotericin B). Cells are routinely grown in […] flasks is containing 35 ml medium kept at 37° C. and in a humidified atmosphere containing 5% CO2. […]
Labelled L-citrulline is separated from labelled L-arginine using Dowex AG-50W. […] After allowing the samples to dry the L-citruulline is quantified by scintillation counting.
In a typical experiment basal activity is 300 dpm per 75 μl sample which is increased to 1900 dpm in the reagent controls. […] Compounds are tested at a range of concentrations and from the inhibitions obtained IC50 values are calculated. […]

With `N=C(N)NN` [arninoguanidine], the IC50 came to 10 µM.
